Columns and labels:
Assay in all cases: radiometric filter-binding kinase assay, Kinase HotSpot
Conditions in all cases: compound 0.5 µM; ATP 10 µM
[1] = molecular target: AKT2 (human) (UniProt P31751)
[2] = molecular target: BMX (human) (UniProt P51813)
[3] = molecular target: BRSK1 (human) (UniProt Q8TDC3)
[4] = molecular target: CAMK2D (human) (UniProt Q13557)
[5] = molecular target: CDK1 CCNB1 (human) (UniProt P06493+P14635)
[6] = molecular target: CDK5 CDK5R1 p25 (human) (UniProt Q00535+Q15078)
[7] = molecular target: CLK4 (human) (UniProt Q9HAZ1)
[8] = molecular target: CSNK1D (human) (UniProt P48730)
[9] = molecular target: DAPK2 (human) (UniProt Q9UIK4)
[10] = molecular target: DSTYK (human) (UniProt Q6XUX3)
[11] = molecular target: EPHA4 (human) (UniProt P54764)
[12] = molecular target: EPHB1 (human) (UniProt P54762)
[13] = molecular target: EPHB4 (human) (UniProt P54760)
[14] = molecular target: GRK7 (human) (UniProt Q8WTQ7)
[15] = molecular target: GSK3A (human) (UniProt P49840)
[16] = molecular target: INSR (human) (UniProt P06213)
[17] = molecular target: LIMK1 (human) (UniProt P53667)
[18] = molecular target: LRRK2 (human) (UniProt Q5S007)
[19] = molecular target: MAP2K2 (human) (UniProt P36507)
[20] = molecular target: MAP3K8 (human) (UniProt P41279)
[21] = molecular target: MST4 (human) (UniProt Q9P289)
[22] = molecular target: NEK11 (human) (UniProt Q8NG66)
[23] = molecular target: NEK4 (human) (UniProt P51957)
[24] = molecular target: NTRK1 (human) (UniProt P04629)
[25] = molecular target: NUAK2 (human) (UniProt Q9H093)
[26] = molecular target: PAK1 (human) (UniProt Q13153)
[27] = molecular target: PDGFRB (human) (UniProt P09619)
[28] = molecular target: PRKCG (human) (UniProt P05129)
[29] = molecular target: PRKCI (human) (UniProt P41743)
[30] = molecular target: PRKCZ (human) (UniProt Q05513)
[31] = molecular target: PTK2 (human) (UniProt Q05397)
[32] = molecular target: PTK2B (human) (UniProt Q14289)
[33] = molecular target: PTK6 (human) (UniProt Q13882)
[34] = molecular target: RPS6KA2 KD1 KD2 (human) (UniProt Q15349)
[35] = molecular target: SGK2 (human) (UniProt Q9HBY8)
[36] = molecular target: SRC (human) (UniProt P12931)
[37] = molecular target: SRPK2 (human) (UniProt P78362)
[38] = molecular target: STK10 (human) (UniProt O94804)
[39] = molecular target: TAOK3 (human) (UniProt Q9H2K8)
[40] = molecular target: TEC (human) (UniProt P42680)
[41] = molecular target: ULK2 (human) (UniProt Q8IYT8)
[42] = molecular target: ZAP70 (human) (UniProt P43403)

Chain of MAP3K8 (human) (P41279 whole entry, looked up): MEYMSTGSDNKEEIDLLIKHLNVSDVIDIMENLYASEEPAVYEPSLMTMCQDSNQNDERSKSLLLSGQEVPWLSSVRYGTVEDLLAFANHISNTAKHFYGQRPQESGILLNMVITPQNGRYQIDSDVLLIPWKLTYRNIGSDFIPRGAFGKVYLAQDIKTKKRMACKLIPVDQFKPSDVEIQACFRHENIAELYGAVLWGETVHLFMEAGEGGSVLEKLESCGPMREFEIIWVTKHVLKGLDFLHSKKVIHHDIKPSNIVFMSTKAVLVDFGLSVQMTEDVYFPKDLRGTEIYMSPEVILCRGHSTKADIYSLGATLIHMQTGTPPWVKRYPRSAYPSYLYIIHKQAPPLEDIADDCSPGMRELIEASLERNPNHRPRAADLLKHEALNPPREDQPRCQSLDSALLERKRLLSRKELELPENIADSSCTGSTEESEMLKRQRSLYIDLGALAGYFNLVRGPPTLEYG
Chain of NEK11 (human) (Q8NG66 whole entry, looked up): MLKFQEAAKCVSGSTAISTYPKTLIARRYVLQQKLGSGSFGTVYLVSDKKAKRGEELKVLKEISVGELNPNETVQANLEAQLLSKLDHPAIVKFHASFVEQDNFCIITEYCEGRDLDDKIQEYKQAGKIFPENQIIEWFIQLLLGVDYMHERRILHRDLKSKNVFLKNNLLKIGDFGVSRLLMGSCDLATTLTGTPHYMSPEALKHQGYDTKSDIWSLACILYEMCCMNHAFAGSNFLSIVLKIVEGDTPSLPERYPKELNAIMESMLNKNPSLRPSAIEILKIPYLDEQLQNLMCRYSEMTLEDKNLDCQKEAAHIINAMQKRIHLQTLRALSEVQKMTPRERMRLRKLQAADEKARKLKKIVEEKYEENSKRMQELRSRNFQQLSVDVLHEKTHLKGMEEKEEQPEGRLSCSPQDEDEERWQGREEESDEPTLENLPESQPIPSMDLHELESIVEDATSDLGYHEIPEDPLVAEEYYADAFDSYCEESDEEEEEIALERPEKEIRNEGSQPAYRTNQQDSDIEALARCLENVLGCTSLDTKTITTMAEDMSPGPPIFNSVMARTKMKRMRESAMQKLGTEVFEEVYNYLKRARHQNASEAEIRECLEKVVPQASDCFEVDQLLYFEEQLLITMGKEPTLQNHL
Chain of PTK2B (human) (Q14289 whole entry, looked up): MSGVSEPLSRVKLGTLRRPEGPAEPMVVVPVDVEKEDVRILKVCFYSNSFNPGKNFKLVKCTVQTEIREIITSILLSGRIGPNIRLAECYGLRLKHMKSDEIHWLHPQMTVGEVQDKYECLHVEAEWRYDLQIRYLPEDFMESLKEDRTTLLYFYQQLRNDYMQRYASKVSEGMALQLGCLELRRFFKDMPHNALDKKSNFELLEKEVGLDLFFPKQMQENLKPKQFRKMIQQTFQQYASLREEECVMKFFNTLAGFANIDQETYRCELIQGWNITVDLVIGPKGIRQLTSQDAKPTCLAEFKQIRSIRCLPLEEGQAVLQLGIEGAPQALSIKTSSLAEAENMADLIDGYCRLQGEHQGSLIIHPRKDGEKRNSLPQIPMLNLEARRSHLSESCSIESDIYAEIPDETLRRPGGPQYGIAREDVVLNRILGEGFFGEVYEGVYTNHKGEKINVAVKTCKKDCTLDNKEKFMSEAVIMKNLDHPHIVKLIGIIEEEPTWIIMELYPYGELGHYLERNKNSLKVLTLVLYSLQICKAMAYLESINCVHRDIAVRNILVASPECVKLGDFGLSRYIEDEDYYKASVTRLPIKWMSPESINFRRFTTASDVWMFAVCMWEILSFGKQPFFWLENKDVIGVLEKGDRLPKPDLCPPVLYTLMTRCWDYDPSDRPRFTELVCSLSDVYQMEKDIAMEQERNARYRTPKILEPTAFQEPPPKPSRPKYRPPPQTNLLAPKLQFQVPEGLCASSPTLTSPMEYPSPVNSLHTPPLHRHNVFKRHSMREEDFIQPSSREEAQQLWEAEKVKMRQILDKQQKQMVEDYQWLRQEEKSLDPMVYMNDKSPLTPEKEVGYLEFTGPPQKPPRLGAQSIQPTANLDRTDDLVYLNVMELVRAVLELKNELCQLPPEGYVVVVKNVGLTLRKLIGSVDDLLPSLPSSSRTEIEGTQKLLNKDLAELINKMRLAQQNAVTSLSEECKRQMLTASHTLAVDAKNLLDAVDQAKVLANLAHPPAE
Chain of MST4 (human) (Q9P289 whole entry, looked up): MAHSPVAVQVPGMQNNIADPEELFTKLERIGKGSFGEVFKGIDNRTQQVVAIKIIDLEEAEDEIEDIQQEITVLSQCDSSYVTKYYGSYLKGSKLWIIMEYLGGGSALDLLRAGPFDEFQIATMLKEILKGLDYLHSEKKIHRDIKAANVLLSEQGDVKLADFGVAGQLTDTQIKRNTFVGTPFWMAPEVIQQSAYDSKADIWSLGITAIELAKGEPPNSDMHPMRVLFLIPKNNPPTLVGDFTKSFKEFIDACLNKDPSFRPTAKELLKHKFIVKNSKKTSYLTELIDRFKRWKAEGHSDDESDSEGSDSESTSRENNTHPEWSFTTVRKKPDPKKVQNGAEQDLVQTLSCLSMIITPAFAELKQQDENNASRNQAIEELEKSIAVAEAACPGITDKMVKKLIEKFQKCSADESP
Chain of CSNK1D (human) (P48730 whole entry, looked up): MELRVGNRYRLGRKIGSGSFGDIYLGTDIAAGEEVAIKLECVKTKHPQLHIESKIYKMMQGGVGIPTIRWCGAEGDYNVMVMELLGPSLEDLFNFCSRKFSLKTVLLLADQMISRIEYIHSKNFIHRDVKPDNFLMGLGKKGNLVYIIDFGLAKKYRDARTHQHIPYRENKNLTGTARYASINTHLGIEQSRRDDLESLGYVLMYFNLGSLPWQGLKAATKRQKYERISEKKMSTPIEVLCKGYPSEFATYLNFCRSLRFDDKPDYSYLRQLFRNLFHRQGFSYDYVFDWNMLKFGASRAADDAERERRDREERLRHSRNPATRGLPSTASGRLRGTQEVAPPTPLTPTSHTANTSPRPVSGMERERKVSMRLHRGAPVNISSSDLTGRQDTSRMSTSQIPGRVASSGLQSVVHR
Chain of SRC (human) (P12931 whole entry, looked up): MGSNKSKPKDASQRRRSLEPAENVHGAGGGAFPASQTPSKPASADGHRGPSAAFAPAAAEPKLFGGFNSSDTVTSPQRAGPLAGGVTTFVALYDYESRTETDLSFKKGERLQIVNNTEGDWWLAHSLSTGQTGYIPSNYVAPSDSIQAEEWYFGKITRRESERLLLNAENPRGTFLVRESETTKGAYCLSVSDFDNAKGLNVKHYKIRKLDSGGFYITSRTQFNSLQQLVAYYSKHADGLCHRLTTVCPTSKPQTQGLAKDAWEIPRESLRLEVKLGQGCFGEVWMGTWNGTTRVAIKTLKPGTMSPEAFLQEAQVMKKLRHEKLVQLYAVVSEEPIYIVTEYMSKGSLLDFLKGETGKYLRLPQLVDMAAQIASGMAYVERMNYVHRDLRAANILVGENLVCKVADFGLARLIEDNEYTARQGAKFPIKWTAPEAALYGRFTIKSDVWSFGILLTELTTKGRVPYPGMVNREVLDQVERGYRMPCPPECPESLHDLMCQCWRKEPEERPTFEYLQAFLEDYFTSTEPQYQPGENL
Chain of MAP2K2 (human) (P36507 whole entry, looked up): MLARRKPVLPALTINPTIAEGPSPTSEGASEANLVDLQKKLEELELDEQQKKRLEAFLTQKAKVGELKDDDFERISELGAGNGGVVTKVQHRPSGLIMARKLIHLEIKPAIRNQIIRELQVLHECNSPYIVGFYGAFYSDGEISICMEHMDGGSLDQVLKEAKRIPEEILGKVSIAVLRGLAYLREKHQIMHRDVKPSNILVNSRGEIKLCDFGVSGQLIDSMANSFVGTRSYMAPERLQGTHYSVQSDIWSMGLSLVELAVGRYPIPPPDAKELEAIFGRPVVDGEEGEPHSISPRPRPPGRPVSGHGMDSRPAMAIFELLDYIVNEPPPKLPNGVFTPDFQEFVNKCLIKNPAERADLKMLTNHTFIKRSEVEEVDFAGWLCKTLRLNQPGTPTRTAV
Chain of PTK6 (human) (Q13882 whole entry, looked up): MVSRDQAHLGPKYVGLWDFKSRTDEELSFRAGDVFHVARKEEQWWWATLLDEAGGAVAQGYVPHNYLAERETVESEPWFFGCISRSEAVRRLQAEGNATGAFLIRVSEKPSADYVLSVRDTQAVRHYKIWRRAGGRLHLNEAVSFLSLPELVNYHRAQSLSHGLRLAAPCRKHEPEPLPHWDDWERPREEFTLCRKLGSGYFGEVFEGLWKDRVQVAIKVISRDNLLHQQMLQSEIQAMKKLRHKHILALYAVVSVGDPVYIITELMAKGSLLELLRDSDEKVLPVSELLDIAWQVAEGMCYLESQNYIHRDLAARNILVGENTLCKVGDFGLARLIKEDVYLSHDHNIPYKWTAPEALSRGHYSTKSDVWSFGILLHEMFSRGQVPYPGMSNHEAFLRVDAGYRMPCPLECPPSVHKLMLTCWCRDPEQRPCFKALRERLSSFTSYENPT
Chain of TEC (human) (P42680 whole entry, looked up): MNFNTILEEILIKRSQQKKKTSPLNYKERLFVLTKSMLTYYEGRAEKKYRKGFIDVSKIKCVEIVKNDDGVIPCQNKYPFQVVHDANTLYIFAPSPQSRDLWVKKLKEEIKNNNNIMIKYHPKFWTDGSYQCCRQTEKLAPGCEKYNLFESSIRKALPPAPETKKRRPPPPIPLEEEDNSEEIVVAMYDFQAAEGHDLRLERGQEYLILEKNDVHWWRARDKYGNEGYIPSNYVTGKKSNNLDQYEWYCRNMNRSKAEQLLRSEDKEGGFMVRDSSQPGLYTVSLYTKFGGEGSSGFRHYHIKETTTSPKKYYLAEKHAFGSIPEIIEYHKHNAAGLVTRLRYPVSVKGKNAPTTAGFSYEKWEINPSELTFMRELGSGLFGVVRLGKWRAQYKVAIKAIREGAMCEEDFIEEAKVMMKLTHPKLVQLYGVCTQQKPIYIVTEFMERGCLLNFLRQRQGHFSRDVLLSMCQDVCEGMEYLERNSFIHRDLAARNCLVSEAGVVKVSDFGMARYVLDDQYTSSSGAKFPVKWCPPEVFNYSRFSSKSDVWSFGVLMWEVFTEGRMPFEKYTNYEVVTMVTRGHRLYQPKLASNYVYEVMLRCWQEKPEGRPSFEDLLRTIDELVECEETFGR

Oc1ccc(Nc2nc(-c3ccc(Cl)cc3)cs2)cc1
residual activity [1]: 96.4% | residual activity [2]: 103% | residual activity [3]: 102% | residual activity [4]: 98.8% | residual activity [5]: 109% | residual activity [6]: 85.9% | residual activity [7]: 98.8% | residual activity [8]: 105% | residual activity [9]: 107% | residual activity [10]: 104% | residual activity [11]: 104% | residual activity [12]: 105% | residual activity [13]: 89.6% | residual activity [14]: 109% | residual activity [15]: 97.4% | residual activity [16]: 88.9% | residual activity [17]: 90.5% | residual activity [18]: 98.7% | residual activity [19]: 109% | residual activity [20]: 94.9% | residual activity [21]: 105% | residual activity [22]: 77.1% | residual activity [23]: 104% | residual activity [24]: 104% | residual activity [25]: 137% | residual activity [26]: 99.4% | residual activity [27]: 107% | residual activity [28]: 87.3% | residual activity [29]: 99.5% | residual activity [30]: 105% | residual activity [31]: 99.4% | residual activity [32]: 100% | residual activity [33]: 87.4% | residual activity [34]: 101% | residual activity [35]: 108% | residual activity [36]: 95.1% | residual activity [37]: 104% | residual activity [38]: 96.6% | residual activity [39]: 101% | residual activity [40]: 120% | residual activity [41]: 101% | residual activity [42]: 94.7%

CCn1cnc2c(Nc3cccc(Cl)c3)nc(N[C@@H]3CCCC[C@@H]3N)nc21
residual activity [1]: 108% | residual activity [2]: 90.7% | residual activity [3]: 92.4% | residual activity [4]: 89% | residual activity [5]: 16.4% | residual activity [6]: 5.16% | residual activity [7]: 49.9% | residual activity [8]: 97.8% | residual activity [9]: 99% | residual activity [10]: 97.8% | residual activity [11]: 78.5% | residual activity [12]: 56.6% | residual activity [13]: 70.8% | residual activity [14]: 97.9% | residual activity [15]: 103% | residual activity [16]: 91.3% | residual activity [17]: 108% | residual activity [18]: 70% | residual activity [19]: 107% | residual activity [20]: 93.6% | residual activity [21]: 104% | residual activity [22]: 101% | residual activity [23]: 96.8% | residual activity [24]: 92.9% | residual activity [25]: 93.7% | residual activity [26]: 88.8% | residual activity [27]: 99.6% | residual activity [28]: 95% | residual activity [29]: 99.7% | residual activity [30]: 106% | residual activity [31]: 83.1% | residual activity [32]: 85.7% | residual activity [33]: 82.1% | residual activity [34]: 45.1% | residual activity [35]: 98.2% | residual activity [36]: 54.7% | residual activity [37]: 80.7% | residual activity [38]: 75.1% | residual activity [39]: 104% | residual activity [40]: 123% | residual activity [41]: 94.2% | residual activity [42]: 106%

Cn1nc2c3c(cccc31)C(=O)c1ccccc1-2
residual activity [1]: 98.9% | residual activity [2]: 101% | residual activity [3]: 92.5% | residual activity [4]: 90% | residual activity [5]: 108% | residual activity [6]: 92.2% | residual activity [7]: 69.8% | residual activity [8]: 20.8% | residual activity [9]: 104% | residual activity [10]: 101% | residual activity [11]: 104% | residual activity [12]: 94.6% | residual activity [13]: 99.9% | residual activity [14]: 113% | residual activity [15]: 91.1% | residual activity [16]: 99.5% | residual activity [17]: 97.1% | residual activity [18]: 55.9% | residual activity [19]: 102% | residual activity [20]: 94.3% | residual activity [21]: 108% | residual activity [22]: 105% | residual activity [23]: 89.8% | residual activity [24]: 95% | residual activity [25]: 85.7% | residual activity [26]: 98.5% | residual activity [27]: 100% | residual activity [28]: 90.6% | residual activity [29]: 98.5% | residual activity [30]: 97.9% | residual activity [31]: 92.8% | residual activity [32]: 102% | residual activity [33]: 91.8% | residual activity [34]: 93.5% | residual activity [35]: 98.9% | residual activity [36]: 90.7% | residual activity [37]: 97.2% | residual activity [38]: 94.5% | residual activity [39]: 87.6% | residual activity [40]: 102% | residual activity [41]: 109% | residual activity [42]: 95.1%

COc1cc2ncc(-c3ccccc3)nc2cc1OC
residual activity [1]: 86.7% | residual activity [2]: 92.2% | residual activity [3]: 102% | residual activity [4]: 87.5% | residual activity [5]: 105% | residual activity [6]: 94.6% | residual activity [7]: 102% | residual activity [8]: 101% | residual activity [9]: 97.3% | residual activity [10]: 82.7% | residual activity [11]: 99.3% | residual activity [12]: 92.8% | residual activity [13]: 86.4% | residual activity [14]: 105% | residual activity [15]: 97.9% | residual activity [16]: 89.1% | residual activity [17]: 77.7% | residual activity [18]: 84.9% | residual activity [19]: 102% | residual activity [20]: 108% | residual activity [21]: 109% | residual activity [22]: 114% | residual activity [23]: 101% | residual activity [24]: 93.2% | residual activity [25]: 133% | residual activity [26]: 91.3% | residual activity [27]: 87.5% | residual activity [28]: 101% | residual activity [29]: 82.1% | residual activity [30]: 96.3% | residual activity [31]: 100% | residual activity [32]: 85.9% | residual activity [33]: 80.8% | residual activity [34]: 85.4% | residual activity [35]: 95.6% | residual activity [36]: 96.1% | residual activity [37]: 84.4% | residual activity [38]: 89.6% | residual activity [39]: 88.9% | residual activity [40]: 164% | residual activity [41]: 113% | residual activity [42]: 98.6%
